Source: patent US20090012152A1, “Use of Tetramic Acid Derivatives for Controlling Insects from the Genus of the Plane Lice (Sternorrhyncha)” (Bayer CropScience Aktiengesellschaft, priority 2005, published 2009)

Legend:
Saissetia oleae = assay: Example 14: orange trees (Navelina) treated against Saissetia oleae; assay type: in vivo; conditions: 120 d after treatment, kill on branches, % a.i.: Dursban 0.096, I-4 0.012, I-9 0.0054, pyriproxyfen 0.005
Protocol: In three replications, orange trees of the cultivar “Navelina” are treated against Saissetia oleae. Here, the active compounds Example (I-4) (240 SC) and Example (I-9) (240 SC) in a tank mix with 0.1% of rapeseed oil methyl ester (500 EW) at the stated application rate are tested against the commercial standards Dursban (480 EC) and pyriproxyfen (100 EC) at the stated application rate. The application is carried out using a motor-operated knapsack sprayer. The application rate is 3200 l of water/ha.
Evaluation is carried out 120 days after the treatment by rating the kill of the animals on the branches.

Aonidiella aurantii = assay: Example 16: grapefruit tree treated against Aonidiella aurantii; assay type: in vivo; conditions: on fruits, per metre crown height: Dursban 6.01 pounds/acre, I-4 72 g/ha
Protocol: In four replications, an about 10-year-old grapefruit tree of the cultivar “Rio Red” is treated against Aonidiella aurantii. The application is carried out using a motor-operated barrow-mounted sprayer. Here, the active compound Example (I-4) (240 SC) and the commercial standard Dursban (480 EC) are tested at the stated application rates. The amount of spray liquor is 5.8 gallons per tree.
Evaluation is carried out 28, 59 and 90 days after the treatment by rating the kill of the animals on the fruits.

CCOC(=O)OC1=C(c2cc(C)ccc2C)C(=O)NC12CCC(OC)CC2 (stereo not shown) [Example (I-4)]
Effect (%) 120 d (Saissetia oleae): 98% | Kill (%) 28 d (Aonidiella aurantii; 28 d after treatment): 92.7% | Kill (%) 59 d (Aonidiella aurantii; 59 d after treatment): 100% | Kill (%) 90 d (Aonidiella aurantii; 90 d after treatment): 100%
